According to ChEMBL document CHEMBL1641470, “New azoles with antifungal activity: Design, synthesis, and molecular docking” (2011):
In brackets after ≈: the same amount, converted by molar mass.

Key:
Assay type in all cases: functional
Candida albicans = assay: Antifungal activity against Candida albicans ATCC Y0109 after 24 hrs by broth microdilution method
Candida parapsilosis = assay: Antifungal activity against Candida parapsilosis by broth microdilution method; conditions: Lodderomyces parapsilosis
Fusarium = assay: Antifungal activity against Fusarium by broth microdilution method
Aspergillus fumigatus = assay: Antifungal activity against Aspergillus fumigatus by broth microdilution method
Cryptococcus neoformans = assay: Antifungal activity against Cryptococcus neoformans ATCC BLS108 after 72 hrs by broth microdilution method
Nannizzia gypsea = assay: Antifungal activity against Microsporum gypseum by broth microdilution method
Trichophyton rubrum = assay: Antifungal activity against Trichophyton rubrum by broth microdilution method
Candida tropicalis = assay: Antifungal activity against Candida tropicalis by broth microdilution method

| Compound | MIC80 (Candida albicans) [µg/mL] | MIC80 (Candida parapsilosis) [µg/mL] | MIC80 (Fusarium) [µg/mL] | MIC80 (Aspergillus fumigatus) [µg/mL] | MIC80 (Cryptococcus neoformans) [µg/mL] | MIC80 (Nannizzia gypsea) [µg/mL] | MIC80 (Trichophyton rubrum) [µg/mL] | MIC80 (Candida tropicalis) [µg/mL] |
| --- | --- | --- | --- | --- | --- | --- | --- | --- |
| O=C(/C=C/c1cccc(Cl)c1)Nc1ccc(N2CCN(CC(O)(Cn3cncn3)c3ccc(F)cc3F)CC2)c(F)c1 (stereo not drawn) | 1 (≈ 1.67 µM) | 0.25 (≈ 0.419 µM) | 1 (≈ 1.67 µM) | 1 (≈ 1.67 µM) | 0.25 (≈ 0.419 µM) | 0.0625 (≈ 0.105 µM) | 0.25 (≈ 0.419 µM) | 0.0625 (≈ 0.105 µM) |
| Cc1ccc(/C=C/C(=O)Nc2ccc(N3CCN(CC(O)(Cn4cncn4)c4ccc(F)cc4F)CC3)cc2)cc1 (stereo not drawn) | 0.0625 (≈ 0.112 µM) | 0.25 (≈ 0.448 µM) | 16 (≈ 28.6 µM) | 64 (≈ 115 µM) | 1 (≈ 1.79 µM) | 0.25 (≈ 0.448 µM) | 0.0156 (≈ 0.0279 µM) | 0.25 (≈ 0.448 µM) |
| C[C@@H](c1ncncc1F)[C@](O)(Cn1cncn1)c1ccc(F)cc1F [VORICONAZOLE] | 0.0152 (≈ 0.0435 µM) | 1 (≈ 2.86 µM) | 0.0152 (≈ 0.0435 µM) | > 64 | 0.0152 (≈ 0.0435 µM) | 0.0039 (≈ 0.0112 µM) | 0.0039 (≈ 0.0112 µM) | 0.25 (≈ 0.716 µM) |
| N#Cc1cccc(/C=C/C(=O)Nc2ccc(N3CCN(CC(O)(Cn4cncn4)c4ccc(F)cc4F)CC3)cc2)c1 (stereo not drawn) | 0.0156 (≈ 0.0274 µM) | 0.25 (≈ 0.439 µM) | 16 (≈ 28.1 µM) | > 64 | 1 (≈ 1.76 µM) | 0.0625 (≈ 0.11 µM) | 1 (≈ 1.76 µM) | 0.25 (≈ 0.439 µM) |
| O=C(/C=C/c1ccccc1)Nc1ccc(N2CCN(CC(O)(Cn3cncn3)c3ccc(F)cc3F)CC2)c(F)c1 (stereo not drawn) | 0.25 (≈ 0.444 µM) | 0.0625 (≈ 0.111 µM) | 0.25 (≈ 0.444 µM) | 1 (≈ 1.78 µM) | 0.0156 (≈ 0.0277 µM) | 0.25 (≈ 0.444 µM) | 0.0625 (≈ 0.111 µM) | 0.0625 (≈ 0.111 µM) |
| O=C(/C=C/c1ccccc1[N+](=O)[O-])Nc1ccc(N2CCN(CC(O)(Cn3cncn3)c3ccc(F)cc3F)CC2)cc1 (stereo not drawn) | 0.0156 (≈ 0.0265 µM) | 0.25 (≈ 0.424 µM) | 4 (≈ 6.78 µM) | > 64 | 1 (≈ 1.7 µM) | 0.25 (≈ 0.424 µM) | 0.0625 (≈ 0.106 µM) | 0.0625 (≈ 0.106 µM) |
| O=C(/C=C/c1ccc([N+](=O)[O-])cc1)Nc1ccc(N2CCN(CC(O)(Cn3cncn3)c3ccc(F)cc3F)CC2)c(F)c1 (stereo not drawn) | 0.0156 (≈ 0.0257 µM) | 0.25 (≈ 0.411 µM) | 1 (≈ 1.65 µM) | > 64 | 1 (≈ 1.65 µM) | 0.25 (≈ 0.411 µM) | 0.0625 (≈ 0.103 µM) | 0.25 (≈ 0.411 µM) |
| O=C(/C=C/c1ccccc1F)Nc1ccc(N2CCN(CC(O)(Cn3cncn3)c3ccc(F)cc3F)CC2)cc1 (stereo not drawn) | 0.0039 (≈ 0.00693 µM) | 0.0625 (≈ 0.111 µM) | 1 (≈ 1.78 µM) | > 64 | 0.0625 (≈ 0.111 µM) | 0.0625 (≈ 0.111 µM) | 0.25 (≈ 0.444 µM) | 0.0156 (≈ 0.0277 µM) |
| CCC(C)n1ncn(-c2ccc(N3CCN(c4ccc(OCC5COC(Cn6cncn6)(c6ccc(Cl)cc6Cl)O5)cc4)CC3)cc2)c1=O (stereo not drawn) [ITRACONAZOLE] | 1 (≈ 1.42 µM) | 0.25 (≈ 0.354 µM) | 0.25 (≈ 0.354 µM) | 1 (≈ 1.42 µM) | 1 (≈ 1.42 µM) | 0.0152 (≈ 0.0215 µM) | 0.0152 (≈ 0.0215 µM) | 0.25 (≈ 0.354 µM) |
| O=C(/C=C/c1ccc(Cl)cc1)Nc1ccc(N2CCN(CC(O)(Cn3cncn3)c3ccc(F)cc3F)CC2)cc1 (stereo not drawn) | 0.0625 (≈ 0.108 µM) | 0.25 (≈ 0.432 µM) | 4 (≈ 6.91 µM) | 64 (≈ 111 µM) | 1 (≈ 1.73 µM) | 0.25 (≈ 0.432 µM) | 0.25 (≈ 0.432 µM) | 0.25 (≈ 0.432 µM) |
| O=C(/C=C/c1cccc(Br)c1)Nc1ccc(N2CCN(CC(O)(Cn3cncn3)c3ccc(F)cc3F)CC2)c(F)c1 (stereo not drawn) | 1 (≈ 1.56 µM) | 0.25 (≈ 0.39 µM) | 1 (≈ 1.56 µM) | 4 (≈ 6.24 µM) | 0.0156 (≈ 0.0243 µM) | 0.25 (≈ 0.39 µM) | 0.25 (≈ 0.39 µM) | 0.0625 (≈ 0.0974 µM) |
| O=C(/C=C/c1ccccc1Cl)Nc1ccc(N2CCN(CC(O)(Cn3cncn3)c3ccc(F)cc3F)CC2)c(F)c1 (stereo not drawn) | 1 (≈ 1.67 µM) | 0.25 (≈ 0.419 µM) | 1 (≈ 1.67 µM) | 4 (≈ 6.7 µM) | 1 (≈ 1.67 µM) | 0.25 (≈ 0.419 µM) | 0.25 (≈ 0.419 µM) | 0.25 (≈ 0.419 µM) |
| O=C(/C=C/c1cccc([N+](=O)[O-])c1)Nc1ccc(N2CCN(CC(O)(Cn3cncn3)c3ccc(F)cc3F)CC2)c(F)c1 (stereo not drawn) | 0.0039 (≈ 0.00642 µM) | 0.0625 (≈ 0.103 µM) | 0.0625 (≈ 0.103 µM) | > 64 | 0.0625 (≈ 0.103 µM) | 0.0625 (≈ 0.103 µM) | 0.0625 (≈ 0.103 µM) | 0.0625 (≈ 0.103 µM) |
| COc1ccc(/C=C/C(=O)Nc2ccc(N3CCN(CC(O)(Cn4cncn4)c4ccc(F)cc4F)CC3)c(F)c2)cc1OC (stereo not drawn) | 0.25 (≈ 0.402 µM) | 0.25 (≈ 0.402 µM) | 4 (≈ 6.42 µM) | > 64 | 1 (≈ 1.61 µM) | 0.25 (≈ 0.402 µM) | 4 (≈ 6.42 µM) | 1 (≈ 1.61 µM) |
| N#Cc1ccc(/C=C/C(=O)Nc2ccc(N3CCN(CC(O)(Cn4cncn4)c4ccc(F)cc4F)CC3)c(F)c2)cc1 (stereo not drawn) | 0.25 (≈ 0.425 µM) | 1 (≈ 1.7 µM) | 64 (≈ 109 µM) | > 64 | 1 (≈ 1.7 µM) | 4 (≈ 6.81 µM) | 4 (≈ 6.81 µM) | 1 (≈ 1.7 µM) |
| O=C(/C=C/c1cccc([N+](=O)[O-])c1)Nc1ccc(N2CCN(CC(O)(Cn3cncn3)c3ccc(F)cc3F)CC2)cc1 (stereo not drawn) | 0.0156 (≈ 0.0265 µM) | 0.0625 (≈ 0.106 µM) | 1 (≈ 1.7 µM) | 4 (≈ 6.78 µM) | 0.25 (≈ 0.424 µM) | 0.25 (≈ 0.424 µM) | 0.0625 (≈ 0.106 µM) | 0.25 (≈ 0.424 µM) |
